Data on 8 molecules can be found in US8093287B2, “Inhibitors of matrix metalloproteinases” (University of Notre Dame du Lac, priority 2005, dated 2012).

Values after ≈ are worked out from the molar mass of the structure shown. Where two headings read alike, the source gives them in different places.

In data set [1] the target is T1, MMP-9 (Homo sapiens, UniProt P14780). As to the kind of experiment: biochemical.
Target sequence in this assay (P14780 107-707 limits assumed): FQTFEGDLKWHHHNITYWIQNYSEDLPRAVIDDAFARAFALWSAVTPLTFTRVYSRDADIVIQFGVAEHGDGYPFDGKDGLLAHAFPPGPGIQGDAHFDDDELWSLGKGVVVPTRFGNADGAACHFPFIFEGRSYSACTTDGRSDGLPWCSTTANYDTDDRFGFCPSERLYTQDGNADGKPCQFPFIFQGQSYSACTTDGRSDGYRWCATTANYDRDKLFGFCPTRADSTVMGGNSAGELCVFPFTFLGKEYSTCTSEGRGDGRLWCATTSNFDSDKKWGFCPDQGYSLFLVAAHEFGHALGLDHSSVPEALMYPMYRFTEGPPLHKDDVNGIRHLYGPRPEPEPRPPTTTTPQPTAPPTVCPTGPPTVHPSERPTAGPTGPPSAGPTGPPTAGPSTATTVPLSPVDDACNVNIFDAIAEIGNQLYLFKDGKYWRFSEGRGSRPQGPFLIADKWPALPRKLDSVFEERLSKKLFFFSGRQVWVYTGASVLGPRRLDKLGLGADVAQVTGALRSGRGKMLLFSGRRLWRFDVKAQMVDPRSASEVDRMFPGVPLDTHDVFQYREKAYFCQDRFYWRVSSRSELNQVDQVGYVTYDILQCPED
The target of data set [2] is T2, MMP-14 (Homo sapiens, UniProt P50281). The data set is described as follows: biochemical.
Data set [3] addresses T3, MMP-7 (Homo sapiens, UniProt P09237).
T3 sequence (P09237 95-267): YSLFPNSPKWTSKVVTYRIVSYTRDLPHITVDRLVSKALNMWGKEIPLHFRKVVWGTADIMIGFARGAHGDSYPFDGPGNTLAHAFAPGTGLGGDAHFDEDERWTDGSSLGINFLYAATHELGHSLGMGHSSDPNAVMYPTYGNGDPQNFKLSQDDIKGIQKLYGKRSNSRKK
As to the kind of experiment: biochemical.

The target of data set [4] is T4, MMP-3 (Homo sapiens, UniProt P08254). As to the kind of experiment: biochemical.
Target sequence in this assay (P08254 100-272 limits assumed): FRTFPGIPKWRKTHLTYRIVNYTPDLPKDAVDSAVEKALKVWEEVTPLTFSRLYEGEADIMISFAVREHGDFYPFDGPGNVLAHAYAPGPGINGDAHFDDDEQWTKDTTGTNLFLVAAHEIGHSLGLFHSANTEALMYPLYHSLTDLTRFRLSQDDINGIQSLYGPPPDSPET
The target in data set [5] is T5, MMP-1 (Homo sapiens, UniProt P03956).
T5 sequence (P03956 100-469): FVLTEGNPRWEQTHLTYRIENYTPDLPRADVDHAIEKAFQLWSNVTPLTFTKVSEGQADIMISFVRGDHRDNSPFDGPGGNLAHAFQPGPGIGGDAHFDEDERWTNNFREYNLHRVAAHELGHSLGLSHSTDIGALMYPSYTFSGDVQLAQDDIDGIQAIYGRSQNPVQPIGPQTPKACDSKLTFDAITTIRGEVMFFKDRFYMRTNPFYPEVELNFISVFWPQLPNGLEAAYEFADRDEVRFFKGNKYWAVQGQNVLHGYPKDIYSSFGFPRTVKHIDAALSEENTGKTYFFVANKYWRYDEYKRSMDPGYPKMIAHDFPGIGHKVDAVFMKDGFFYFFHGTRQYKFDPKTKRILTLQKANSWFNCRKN
The data set is described as follows: biochemical.

A further data set concerns the target T6, MMP-2 (Homo sapiens, UniProt P08253).
T6 sequence (P08253 110-660): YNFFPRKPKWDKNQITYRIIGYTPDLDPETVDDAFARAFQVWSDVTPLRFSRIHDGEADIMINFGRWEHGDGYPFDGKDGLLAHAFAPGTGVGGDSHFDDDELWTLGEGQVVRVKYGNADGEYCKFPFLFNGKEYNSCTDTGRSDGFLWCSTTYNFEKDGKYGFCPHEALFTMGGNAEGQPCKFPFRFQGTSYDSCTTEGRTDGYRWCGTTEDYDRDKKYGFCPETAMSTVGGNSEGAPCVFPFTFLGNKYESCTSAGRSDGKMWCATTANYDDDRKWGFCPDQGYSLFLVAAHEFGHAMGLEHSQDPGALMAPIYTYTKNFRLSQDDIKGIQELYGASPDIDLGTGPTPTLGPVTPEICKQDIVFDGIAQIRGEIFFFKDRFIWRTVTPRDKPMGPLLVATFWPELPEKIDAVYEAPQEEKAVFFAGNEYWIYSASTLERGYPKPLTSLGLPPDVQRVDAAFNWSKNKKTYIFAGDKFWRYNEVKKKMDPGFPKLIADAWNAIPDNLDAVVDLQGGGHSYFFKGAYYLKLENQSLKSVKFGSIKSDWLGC
As to the kind of experiment: Enzyme kinetics, MMP inhibition (Example 1). The format is biochemical. The note with it: for Ki: for 1.3 with slow-binding component.

For data set [6], the target named is T1, MMP-9. As to the kind of experiment: Enzyme kinetics, MMP inhibition (Example 1). The format is biochemical.
Target sequence in this assay (P14780 94-707): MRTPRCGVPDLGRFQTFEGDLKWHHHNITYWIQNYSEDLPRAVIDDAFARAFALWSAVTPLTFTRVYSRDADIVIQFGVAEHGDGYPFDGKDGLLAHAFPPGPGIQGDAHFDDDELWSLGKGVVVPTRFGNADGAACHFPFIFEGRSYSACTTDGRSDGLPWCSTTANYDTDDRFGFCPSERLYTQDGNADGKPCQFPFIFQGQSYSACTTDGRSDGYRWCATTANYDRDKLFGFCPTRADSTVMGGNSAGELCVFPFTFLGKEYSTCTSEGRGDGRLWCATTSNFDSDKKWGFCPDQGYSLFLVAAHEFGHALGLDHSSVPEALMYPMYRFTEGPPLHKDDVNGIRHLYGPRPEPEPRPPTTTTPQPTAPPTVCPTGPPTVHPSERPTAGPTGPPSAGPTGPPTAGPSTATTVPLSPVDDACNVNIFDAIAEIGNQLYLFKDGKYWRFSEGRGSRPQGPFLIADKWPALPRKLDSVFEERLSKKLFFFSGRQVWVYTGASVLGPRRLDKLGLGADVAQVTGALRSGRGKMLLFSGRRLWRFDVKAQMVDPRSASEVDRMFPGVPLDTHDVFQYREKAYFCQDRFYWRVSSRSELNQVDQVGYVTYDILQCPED
In the next data set the target is T7, MMP-14cat (Homo sapiens, UniProt P50281).
T7 construct: MMP-2 (A), MMP-9 (B) and MMP-14cat (C)
The data set is described as follows: Enzyme kinetics, MMP inhibition (Example 1). The class given is biochemical.

For data set [7], the target named is T5, MMP-1. As to the kind of experiment: Enzyme kinetics, MMP inhibition (Example 1). The format is biochemical.
Data set [8] addresses T4, MMP-3. As to the kind of experiment: Enzyme kinetics, MMP inhibition (Example 1). The class given is biochemical.
Target sequence in this assay (P08254 100-477): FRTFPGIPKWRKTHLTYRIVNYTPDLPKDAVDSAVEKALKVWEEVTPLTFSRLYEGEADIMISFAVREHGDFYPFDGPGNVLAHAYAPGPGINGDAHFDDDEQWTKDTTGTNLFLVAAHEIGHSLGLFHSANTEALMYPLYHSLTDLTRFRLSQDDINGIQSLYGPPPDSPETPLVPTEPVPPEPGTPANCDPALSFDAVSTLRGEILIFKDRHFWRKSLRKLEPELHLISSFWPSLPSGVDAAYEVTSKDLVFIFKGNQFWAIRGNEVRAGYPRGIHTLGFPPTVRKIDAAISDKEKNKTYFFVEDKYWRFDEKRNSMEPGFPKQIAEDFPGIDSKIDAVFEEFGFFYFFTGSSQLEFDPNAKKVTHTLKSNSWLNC
The target of data set [9] is T3, MMP-7. As to the kind of experiment: Enzyme kinetics, MMP inhibition (Example 1). The class given is biochemical.
The nature of another data set: physchem. The note with it: 37 °C, pH 7.5, aqueous with cosolvent or surfactant or cyclodextrin, kinetic from dmso stock.
Data set [10] concerns HT1080 cells. As to the kind of experiment: Migration assay, scratch wound. The class given is cell-based, human. On the procedure:
(§1) FIG. 7 illustrates inhibition of HT1080 cell motility and invasion by inhibitor 2.3. A-B: Confluent cultures of HT1080 cells in 6-well plates were treated with mitomycin C (25 μg/ml) in serum-free DMEM media for 30 minutes. Scratch wounds were made on the monolayers and the wounded cultures were then incubated with serum-free DMEM supplemented without or with various amounts of inhibitor 2.3 (0-20 μM) for up to 20 hours. At each time period, the cultures were photographed (A) and the width of the scratch wound was measured as described under the Experimental Procedures section of Example 2. (C): HT1080 cells were seeded in 8-μm pore Transwell filters coated with Matrigel (50 μg/filter) in the presence or absence of inhibitor 2.3 (0.1-10 μM). The number of cells that invaded to the lower side of the filter was counted in three representative fields. Each value represents the mean±SE of four independent determinations. *P<0.05, and *P<0.001 when tested against the control using Tukey-Kramer Multiple Comparisons Test (P=0.004 by ANOVA).
Migration and Invasion Assays—For migration assays, HT1080 cells were cultured in 6-well plates in complete media until they reached confluence. […] The extent of wound closure in the presence or absence of inhibitor was quantified by measuring the width of the wound with a ruler using an amplified PowerPoint figure.

Data set [11] concerns HT1080 cells. The data set is described as follows: Tumor cell invasion, Matrigel-coated Transwell. The conditions noted are these: Homo sapiens, HT-1080; 100 nM; Matrigel-coated filters, 18 h. The class given is cell-based. On the procedure: as §1
Tumor cell invasion was carried out in 8-μm pore Transwell inserts (Becton Dickinson, Boston, Mass.) coated with 50 μg Matrigel per filter. […] The cells that migrated to the lower side of the Matrigel-coated filter were fixed and stained with Diff-Quik® (Dade Behring Inc., Newark, Del.), and counted under a microscope in three different fields. […]

In data set [12] the test system is HT1080 cells. As to the kind of experiment: Chemosensitivity assay (WST-1). The class given is cell-based, human. The conditions noted are these: up to 10 μM, 18 hours. The procedure: Chemosensitivity Assay—Cell viability after exposure of the cells to the inhibitors was assessed by 2-(4-iodophenyl)-3-(4-nitrophenyl)-5-(2,4-disulfophenyl)-2H-tetrazolium, monosodium salt (WST-1, Roche Diagnostics Gmbh, Mannheim, Germany) staining Briefly, HT1080 cells (2×10^4 cells/well) were seeded in 96-well culture plates in complete medium. After overnight culture, the medium was replaced with serum and phenol-free media containing 0.1% BSA and supplemented with or without inhibitor 2.3 (0-10 μM final concentrations). Control medium was supplemented with 1% DMSO. After 18 hours incubation, WST-1 (10 μL/well) was added and the difference in absorbance at 450 and 655 (reference filter) nm was measured using a Bio-Rad Benchmark microplate reader. Data were collected using the Microplate Manager software. The absorbance of blank wells containing control media but no cells (typically <5%) was subtracted. Each treatment was assayed in quadruplicate.

Data set [13] deals with T1, MMP-9. The conditions noted are these: read-out: Ki of the slow-binding component.
Target sequence in this assay (P14780 107-707 limits assumed): as the sequence (P14780 107-707 limits assumed) above
Data set [14] concerns the target T2, MMP-14. The conditions noted are these: MMP-14, slow-binding component, koff/kon.
In data set [15] the target is T3, MMP-7. The conditions noted are these: MMP-7, rapid competitive inhibition.
Data set [16] addresses T4, MMP-3. The conditions noted are these: MMP-3, rapid competitive inhibition.
Target sequence in this assay (P08254 100-272 limits assumed): as the sequence (P08254 100-272 limits assumed) above
Data set [17] can be described thus: Assessment of inhibitor solubility. The conditions noted are these: 37 °C, pH 7.5, aqueous with cosolvent or surfactant or cyclodextrin, kinetic from dmso stock.

Consider `CC(=O)Nc1ccc(Oc2ccc(S(=O)(=O)CC3CO3)cc2)cc1` (stereo not drawn) [Compound 2.6, [4-(4-Acetamidophenoxy)phenylsulfonyl]methyloxirane], for which the Ki at MMP-9 [1] was 34 ± 3 µM; on MMP-14 [2], more than 230 µM; at MMP-7 [3], more than 184 µM; on MMP-3 [4], more than 188 µM; on MMP-1 [5], more than 154 µM.
Consider “Methyl 2-(4-{4-[(2-Thiiranylpropyl)sulfonyl]phenoxy}phenyl)-acetate [Compound 1.3]”, for which the “koff, slow-binding component of inhibition” value on MMP-2 is reported as “(6.2 ± 0.7) × 10^−4 s^−1”. Also, on MMP-2, the “kon, slow-binding component of inhibition” value was “(1.2 ± 0.3) 10^4 M^−1s^−1”. Besides, the Ki at MMP-2 stood at 0.05 ± 0.014 µM; at MMP-9 [6] it was 0.04 ± 0.002 µM; on MMP-14cat it was 0.59 ± 0.07 µM; at MMP-1 [7], 11 µM; at MMP-3 [8] it was 8.7 µM; at MMP-7 [9], 13 µM.
In “physchem”, `O=S(=O)(CC1CS1)c1ccc(Oc2ccccc2)cc1` (stereo not drawn) [Compound 2.1, reference compound] gave a solubility of 80 µM (≈ 24.5 µg/mL).
`CS(=O)(=O)Nc1ccc(Oc2ccc(S(=O)(=O)CC3CS3)cc2)cc1` (stereo not drawn) [Compound 2.3, {4-[4-(Methanesulfonamido)phenoxy]phenylsulfonyl}methylthiirane]: the “migration in scratch wound assay” value in the data set with HT1080 cells [10] (200 nM) is “slower migration”. In the data set with HT1080 cells [10] (Homo sapiens, HT-1080), this molecule showed an inhibition at 2 µM of 80%. The inhibition at 0.1 µM with HT1080 cells [11] is more than 25%. Also, the “cell toxicity (WST-1)” value in the data set with HT1080 cells [12] was “no evidence of cell toxicity”. In addition, the inhibition constant Ki on MMP-9 [13] was 0.18 ± 0.05 µM; at MMP-14 [14], 0.9 ± 0.1 µM; on MMP-7 [15], 295 ± 10 µM; at MMP-3 [16], 3.6 ± 0.2 µM; at MMP-1 [5], more than 25 µM. For the same molecule, the concentration in solution in “physchem” (solubility) came to 340 µM (≈ 136 µg/mL).
As to `O=[N+]([O-])c1ccc(Oc2ccc(S(=O)(=O)CC3CO3)cc2)cc1` (stereo not drawn) [Compound 2.4, [4-(4-Nitrophenoxy)phenylsulfonyl]methyloxirane], the inhibition constant Ki at MMP-9 [1] is 25 ± 5 µM; on MMP-14 [2], 76 ± 13 µM; at MMP-7 [3] it was 130 ± 15 µM; at MMP-3 [4] it was more than 190 µM; at MMP-1 [5] it was more than 298 µM.
On to `CC(=O)Nc1ccc(Oc2ccc(S(=O)(=O)CC3CS3)cc2)cc1` (stereo not drawn) [Compound 2.7, [4-(4-Acetamidophenoxy)phenylsulfonyl]methylthiirane], for which the concentration in solution in “physchem” (solubility) came to 540 µM (≈ 196 µg/mL).
Regarding “2-(4-{4-[(2-Thiiranylpropyl)sulfonyl]phenoxy}phenyl)acetic acid [Compound 1.4]”, the Ki at MMP-2 was 0.46 µM; at MMP-9 [6] it was 4.1 µM; at MMP-14cat it was 53 µM; on MMP-1 [7], 4.5 µM; on MMP-3 [8], 540 µM; at MMP-7 [9] it was 250 µM.
On to `O=[N+]([O-])c1ccc(Oc2ccc(S(=O)(=O)CC3CS3)cc2)cc1` (stereo not drawn) [Compound 2.5, [4-(4-Nitrophenoxy)phenylsulfonyl]methylthiirane], for which the inhibition constant Ki at MMP-9 [1] was determined as 1 ± 0.1 µM; on MMP-14 [2], 4.9 ± 0.3 µM; at MMP-7 [3], 153 ± 16 µM; at MMP-3 [4], 131 ± 9 µM; at MMP-1 [5] it was 67 ± 18 µM. This molecule also yielded a solubility in data set [17] of 60 µM (≈ 21.1 µg/mL).

The Ki is a dissociation constant, usually derived from enzyme kinetics or from competition with a known ligand. One may read the solubility as the concentration that dissolves in the medium under given conditions. Low readings indicate little dissolved substance, high ones much dissolved substance. The term inhibition denotes the relative decrease from the control value, in per cent. High values mean strong suppression, low ones little suppression.
